Data set [1] deals with 4T1. Put plainly: Antitumor activity against mouse 4T1 cells implanted mouse model assessed as inhibition of tumor growth at 15 mg/kg, ip relative to control. It is filed as functional.
For data set [2], the system named is MCF7. Put plainly: cells. The note with it: Homo sapiens.
In data set [3] the test system is BGC-823. The experiment in a line: Antiproliferative activity against human BGC-823 cells assessed as inhibition of cell growth incubated for 72 hrs by MTT assay. It is filed as functional, cell-based. The settings on record: BGC-823, 72 h. (Tetrazolium dyes change colour on reduction, which living cells bring about.)
Data set [4] concerns MGC-803. Put plainly: Potency index, ratio of 5-fluorouracil IC50 to test compound IC50 for antiproliferative activity against human MGC-803 cells assessed as inhibition of cell growth incubated for 72 hrs by MTT assay. Type of data set: functional.
Data set [5] deals with SGC-7901. The experiment in a line: Antiproliferative activity against human SGC-7901 cells assessed as inhibition of cell growth incubated for 72 hrs by MTT assay. The settings on record: SGC-7901, 72 h. Type of data set: functional, cell-based.
The test system of data set [6] is BGC-823. Put plainly: Potency index, ratio of 5-fluorouracil IC50 to test compound IC50 for antiproliferative activity against human BGC-823 cells assessed as inhibition of cell growth incubated for 72 hrs by MTT assay. Type of data set: functional.
The subject of data set [7] is MGC-803. The experiment in a line: Antiproliferative activity against human MGC-803 cells assessed as inhibition of cell growth incubated for 72 hrs by MTT assay. The settings on record: MGC-803, 72 h. Type of data set: functional, cell-based.
Data set [8] concerns MGC-803. Put plainly: Antitumor activity against human MGC-803 cells xenografted in BALB/c nude mouse model assessed as inhibition of tumor growth at 60 mg/kg, IG administered daily for 21 days relative to control. It is filed as functional. The settings on record: MGC-803, po, 504 h, time 21 day. (In xenograft studies the graft and the host belong to different species.)
Data set [9] deals with SGC-7901. Put plainly: Potency index, ratio of 5-fluorouracil IC50 to test compound IC50 for antiproliferative activity against human SGC-7901 cells assessed as inhibition of cell growth incubated for 72 hrs by MTT assay. It is filed as functional.
Data set [10] is described as follows: Antitumor activity against human Topotecan-resistant S1M180 cells over expressing BCRP xenografted in BALB/c nude mouse model assessed as fold change in topotecan level at 45 mg/kg, ip administered every 2 days for 6 times relative to control. It is filed as functional, Topotecan-resistant S1M180 cell. The note with it: time 12 day.
Data set [11] can be described thus: Antiproliferative activity against BCRP-mediated human Topotecan-resistant S1M180 cells assessed as inhibition of cell growth incubated for 5 days by MTS assay. The note with it: 120 h. It is filed as functional, cell-based.
The nature of data set [12]: Tmax in BALB/c mouse at 45 mg/kg, ip measured up to 24 hrs. Type of data set: ADME, organism-based. The settings on record: in vivo.
Data set [13] can be described thus: Antiproliferative activity against BCRP-mediated human Topotecan-resistant MCF7/MX100 cells assessed as inhibition of cell growth incubated for 5 days by MTS assay. It is filed as functional, cell-based. The note with it: MCF7/MX100, 120 h.
A short description of data set [14]: Antiproliferative activity against BCRP-mediated Topotecan-resistant HEK293/R2 cells assessed as inhibition of cell growth incubated for 5 days by MTS assay. Type of data set: functional, cell-based. The settings on record: Homo sapiens, HEK293/R2, 120 h.
The nature of data set [15]: Cmax in BALB/c mouse at 45 mg/kg, ip measured up to 24 hrs. Type of data set: ADME, organism-based. The arrangement: time < 24 hrs, dose 45 mg/kg, route ip. The settings on record: in vivo.
Data set [16] is described as follows: AUC(0 to infinity) in BALB/c mouse at 45 mg/kg, ip measured up to 24 hrs. Type of data set: ADME, organism-based. The arrangement: dose 45 mg/kg, time < 24 hrs, route ip. The settings on record: in vivo.
The nature of data set [17]: Antitumor activity against human Topotecan-resistant S1M180 cells over expressing BCRP xenografted in BALB/c nude mouse model assessed as reduction in tumor volume at 45 mg/kg, ip administered every 2 days for 6 times relative to control. It is filed as functional, Topotecan-resistant S1M180 cell. Also on record: scale not given: the % may be the effect or the level left. The settings on record: time 12 day.

Data set [18] can be described thus: Antiproliferative activity against […]-mediated human Doxorubicin-resistant 2008/MRP1 cells assessed as inhibition of cell growth incubated for 5 days by MTS assay. It is filed as functional, cell-based, Doxorubicin-resistant 2008/MRP1 cell. The note with it: 2008/MRP1, 120 h.
A short description of data set [19]: Antiproliferative activity against BCRP-mediated human Doxorubicin-resistant S1M180 cells assessed as inhibition of cell growth incubated for 5 days by MTS assay. It is filed as functional, cell-based. The settings on record: S1-M1-80, 120 h.
Data set [20] can be described thus: Half life in BALB/c mouse at 45 mg/kg, ip measured up to 24 hrs. Type of data set: ADME, organism-based. The settings on record: in vivo.
For data set [21], the system named is Ehrlich. Put plainly: Antitumor activity against mouse EAC cells implanted in Swiss albino mouse model assessed as increase in life span at 10 mg/kg, ip administered each day for 9 days and measured after 14 days relative to control. The settings on record: time 14 day. It is filed as functional.
For data set [22], the system named is Ehrlich. The experiment in a line: Antitumor activity against mouse EAC cells implanted in Swiss albino mouse model assessed as tumor growth inhibition at 10 mg/kg, ip administered each day for 9 days and measured after 14 days relative to control. It is filed as functional. The settings on record: 336 h, time 14 day.
In data set [23] the test system is NCI-H1975. Put plainly: Antiproliferative activity against human NCI-H1975 cells assessed as inhibition of cell growth by MTT assay. It is filed as functional, cell-based.
In data set [24] the test system is 4T1. Put plainly: Antitumor activity against mouse 4T1 cells overexpressing IDO1 implanted in BALB/c mouse model assessed as inhibition of tumor growth at 25 mg/kg, ip qd administered every day for 8 consecutive days and measured after 14 days relative to control. Type of data set: functional. The note with it: 4T1, 336 h, time 14 day.
Data set [25] concerns A549. The experiment in a line: Antiproliferative activity against human A549 cells assessed as inhibition of cell growth by MTT assay. It is filed as functional, cell-based.
Data set [26] relates to NCI-H460. Put plainly: Antiproliferative activity against human NCI-H460 cells assessed as inhibition of cell growth by MTT assay. It is filed as functional, cell-based.
Data set [27] has as its system PC-9. Put plainly: Antitumor activity against human PC-9 cells xenografted in NSG mouse model assessed as inhibition of tumor growth at 25 mg/kg, ip qd administered every day for 7 consecutive days relative to control. Type of data set: functional. The note with it: PC-9, 168 h, time 7 day.
In data set [28] the test system is PC-9. Put plainly: Antiproliferative activity against human PC-9 cells assessed as inhibition of cell growth by MTT assay. It is filed as functional, cell-based.
A short description of data set [29]: Antiproliferative activity against human IMR-90 cells assessed as inhibition of cell growth by MTT assay. Type of data set: toxicity, cell-based.
In data set [30] the test system is A549. Put plainly: Antitumor activity against human A549 cells xenografted in zebrafish model assessed as reduction in tumor focal area at 2.5 uM relative to control. Type of data set: functional. Also on record: scale not given: the % may be the effect or the level left.
Data set [31] relates to Hep 3B2. Put plainly: Antiproliferative activity against human Hep3B cells assessed as inhibition of cell growth incubated for 72 hrs by MTT assay. It is filed as functional, cell-based.
Data set [32] relates to H22. The experiment in a line: Antitumor activity against […] cells xenografted in BALB/c mouse model assessed as inhibition of tumor growth at 15 mg/kg, ip administered every 2 days for 15 days relative to control. Type of data set: functional. The note with it: H22, 360 h, time 15 day.
Data set [33] relates to H22. The experiment in a line: Antitumor activity against […] cells xenografted in BALB/c mouse model assessed as inhibition of tumor growth at 45 mg/kg, ip administered every 2 days for 15 days relative to control. The settings on record: H22, 360 h, time 15 day. Type of data set: functional.
For data set [34], the system named is HepG2. The experiment in a line: Antiproliferative activity against human HepG2 cells assessed as inhibition of cell growth incubated for 72 hrs by MTT assay. Type of data set: functional, cell-based. The note with it: HepG2, 72 h.
In data set [35] the test system is HepG2. The experiment in a line: Antiproliferative activity against human HepG2 cells assessed as inhibition of cell growth by MTT assay. It is filed as functional, cell-based.
The test system of data set [36] is MDA-MB-231. Put plainly: Antiproliferative activity against human MDA-MB-231 cells assessed as inhibition of cell growth by MTT assay. Type of data set: functional, cell-based.
For data set [37], the system named is A549/TR. The experiment in a line: Antiproliferative activity against taxol-resistant human A549/Taxol cells assessed as inhibition of cell growth by MTT assay. Type of data set: functional, cell-based.
For data set [38], the system named is HT-29. The experiment in a line: Antiproliferative activity against human HT-29 cells assessed as inhibition of cell growth by MTT assay. It is filed as functional, cell-based.
Data set [39] concerns Bel-7402. The experiment in a line: Antiproliferative activity against human Bel-7402 cells assessed as inhibition of cell growth by MTT assay. It is filed as functional, cell-based.
For data set [40], the system named is A549. Put plainly: Antitumor activity against human A549 cells xenografted in BALB/c nude mouse model assessed as inhibition of tumor growth at 80 mg/kg, ip administered every other day for 7 times relative to control. It is filed as functional.
Data set [41] deals with SGC-7901. The experiment in a line: Antiproliferative activity against human SGC-7901 cells assessed as inhibition of cell growth by MTT assay. It is filed as functional, cell-based.

SMILES strings stand for the structures.

As for `Clc1ccc(N/N=C/c2cn(-c3cc(Cl)cc(Cl)c3)nn2)cc1`, the inhibition in vivo at 15 mg/kg in [1] was above 60%. Further, in [2], the IC50 was found to be 3200 nM.
Take `Cc1cc(=O)oc2cc(OCc3cn(-c4ccc(S(N)(=O)=O)cc4)nn3)ccc12`: the half-maximal inhibitory concentration (IC50) in data set [3] worked out at 400 nM; in [5], 3500 nM; in [7], 3400 nM. Moreover, the “Ratio IC50” value in [4], in [6] and in data set [9] was 4.1 throughout. For the same compound, the inhibition in vivo at 60 mg/kg in data set [8] is 64.2%.
As to `COC(=O)c1cccc(COc2c(-c3ccc(OCCOCCc4cn(CN(Cc5ccccc5)Cn5cc(CCOCCOc6ccc(-c7oc8ccccc8c(=O)c7OCc7cccc(C(=O)OC)c7)cc6)nn5)nn4)cc3)oc3ccccc3c2=O)c1`, the “fold change (FC)” value in data set [10] is 2. In addition, the concentration giving a half-maximal response (EC50) in [11], in [13], in data set [14], in [18] and in [19] was 3.3 nM in each case. Moreover, the Tmax in data set [12] is 3 h. In [15], the Cmax was 15700 ng/mL. For the same compound, the AUC(0-inf) in [16] is 83500 ng·h/mL. In [17], the Activity is 40%. Moreover, the half-life in [20] is 10.6 h.
Take `COc1ccc(-c2ccc3c(c2)OCC(=O)N3Cc2cn(-c3cc(Cl)cc(Cl)c3)nn2)cc1`: the Activity in data set [21] is reported as 68.94%. In data set [22], the inhibition in vivo at 10 mg/kg came to 54%.
For `COCCOc1cc2ncnc(Nc3cccc(-c4cn(Cc5cc(Br)cc(Br)c5)nn4)c3)c2cc1OCCOC`, the half-maximal inhibitory concentration (IC50) in data set [23], in [25], in [26] and in data set [28] was 3310 nM in each case. For the same compound, the results for the inhibition in vivo at 25 mg/kg in data set [24] and in data set [27] were 64% and 90%, respectively.
With `COc1cc(/C=C/C(=O)C(Cc2cn(Cc3ccc(Cl)c(Cl)c3)nn2)C(=O)/C=C/c2ccc(O)c(OC)c2)ccc1O`, the half-inhibitory concentration (IC50) in data set [29] is above 100000 nM; in [25] it was 2270 nM. In addition, the Activity in [30] amounted to 39.07%.
For `COc1cc(C(=O)c2nn(-c3ccccc3)nc2N2CCC(N)CC2)cc(OC)c1OC`, the IC50 worked out at 40.9 nM in [31] and 59.6 nM in [34]. Moreover, the inhibition in vivo at 15 mg/kg in [32] came out at 66%. In data set [33], the inhibition in vivo at 45 mg/kg stood at 82%.
On to `COc1cc(C(=O)c2nn(-c3ccccc3F)nc2N2CC(O)C2)cc(OC)c1OC`, for which the IC50 in [35] is 65.4 nM; in data set [36], 65.4 nM; in data set [25], 63 nM; in data set [37], 65.4 nM; in data set [38], 65.4 nM; in data set [26] it was 65.4 nM. The half-inhibitory concentration (IC50) in [39] came to 65.4 nM; in data set [2], 63 nM; in [41], 63 nM. In addition, in data set [40], the inhibition in vivo at 80 mg/kg worked out at 60%.

Usually inhibition in vivo stands for the drop in the measured response relative to a control, in per cent. As usually defined, the IC50 is the concentration that gives 50% inhibition. Usually EC50 stands for the midpoint of the concentration-response curve. By Tmax is commonly meant the time from dosing to the highest level. What is called Cmax is the maximum level reached in the sampled fluid or tissue. As a reminder, the AUC(0-inf) is total exposure, with the tail of the curve extrapolated. The half-life is how long it takes for the measured level to halve.

The record behind these values is ChEMBL document CHEMBL5360538, “Recent updates on 1,2,3-triazole-containing hybrids with in vivo therapeutic potential against cancers: A mini-review” (Eur J Med Chem, 2023).
